The test system of data set [1] is Physically Morphine Dependent Rats. Type of data set: in vivo. On the procedure: (§1) Substitution Studies in Physically Morphine Dependent Rats
(§2) Rats were made physically dependent by continuous infusion of morphine through an indwelling intraperitoneal cannula as has been described (D. G. Teiger, J. Pharmacol. Exp. Ther., 190 408, 1974). Then one day substitution of either TR-5257 or TR-5379 was studied. Both drugs were infused at the rate of 125 mg/kg/day.

Data set [2] has the same test system. As to the kind of experiment: Incidence of side effects during substitution in morphine dependent rats. The method, then:
as §1, §2
*Post termination of morphine infusion and during test drug infusion.

The test system of data set [3] is mice (acetic acid writhing). As to the kind of experiment: Acetic Acid Mouse Writhing Test (analgesic effects). Type of data set: in vivo, male CD-1 mice. The settings on record: sc, 0.25 h, subcutaneous, acetic acid i.p. 15 min post drug, read-out: ED50 (dose required to reduce the number of writhes by 50%). The method, then: Acetic Acid Mouse Writhing Test
The analgesic effects of the test compounds were determined in mice by use of the acetic acid writhing test described by B. A. Whittle, Brit. J. Pharmacol., 22: 246 (1964). In this test at least three groups of 5 male CD-1 mice each were given subcutaneous doses of the test drug dissolved in distilled water. In all cases 0.4 milliliters of a 0.5% V/V acetic acid in distilled water solution was administered intraperitoneally 15 minutes post drug. The number of writhes in a 20 minute interval beginning 5 minutes after the acetic acid injection were determined and compared with the number of writhes in a control group which had received only acetic acid.
Percent inhibition of writhing was calculated as: [formula]
The ED50 dose, i.e., the dose required to reduce the number of writhes by 50%, was determined graphically from a plot of % inhibition as a probit verus log dose. Confidence limits of 95% were calculated on the basis of those results falling in the range 16-84% inhibition. See Litchfield, J. T. and Wilcoxon, F., J. Pharmacol. Exp. Ther., 96, 99-113 (1949).
(In general: An intraperitoneal irritant provokes the stretching counted in writhing tests.)

The test system of another data set is drug dependent monkeys. As to the kind of experiment: Substitution for morphine in drug dependent monkeys. It counts as in vivo.
Data set [4] has as its system rats (effect of morphine, tail flick). Briefly: Evaluation of Narcotic Antagonist Activity (modified rat tail flick test, antagonism of morphine). It counts as in vivo, male albino Wistar rats. The method, then: Evaluation of Narcotic Antagonist Activity
The narcotic antagonist effect of the test compound was determined by a modification of the rat tail flick procedure of Harris and Pierson (J. Pharmacol. Exp. Ther., 143:141 [1964]).
Male albino Wistar rats (100-120 g) were used for this study. A rat's tail is so placed so as to cover a photocell. Heat is applied by a lamp in a reflector with a timer being connected to the lamp and photocell so that the timer goes on when the light is turned on and is turned off when the photocell is uncovered. A rheostat, incorporated into a heating lamp is used to adjust the intensity of the light falling on the tail of the rat such that the rat's control reaction time is from two to four seconds. Animals with a control reaction time outside this range are rejected. The rheostat adjustment is made only if a significant proportion (1 out of every 10 rats) of the reaction times are outside the range of two to four seconds. Groups of 5 rats were used, and two control times were determined at 60 and 30 minutes prior to subcutaneous injection of the drug.
At least thirty minutes after the last control run the test drug was given […]. This was followed ten minutes later by an ED80 dose of morphine subcutaneously. The animals were retested at 20 minutes after the morphine injection. Control animals were given vehicle and morphine only. The data were calculated as follows: [formula]
The data were plotted on log-probit paper and AD50 values, i.e., the dose required to inhibit the effect of morphine by 50% within 95% confidence limits, were determined by the method of Litchfield and Wilcoxon.

Where [5] appears, read: +6 hr post termination of morphine infusion, during test drug infusion.

Entries after “also recorded” stand apart in the source; their conditions may differ. Structures can show the parent of a compound that is named as a salt. Where two headings read alike, the source gives them in different places.

For `CN1CC[C@]23c4c5ccc(O)c4O[C@H]2[C@@H](O)C=C[C@H]3[C@H]1C5` [Morphine], the “Mean % Change in Weight From Termination of Morphine Infusion” value (shortened to “Mean % Change in Weight From Termination”) is -16.8% in data set [1] (+1 day (test drug infusion stopped here), 125 mg/kg/day for 1 day, morphine: infusion schedule 50-200 mg/kg/day); -12.7% in data set [1] (+2 days, 125 mg/kg/day for 1 day, morphine: infusion schedule 50-200 mg/kg/day); -7.8% in data set [1] (+3 days, 125 mg/kg/day for 1 day, morphine: infusion schedule 50-200 mg/kg/day); -1.6% in data set [1] (+4 days, 125 mg/kg/day for 1 day, morphine: infusion schedule 50-200 mg/kg/day).

By ED50 is commonly meant the midpoint of the dose-response relation. Consider `C[C@H]1CC(=O)C[C@]23CCN(CC4CCC4)[C@H](Cc4ccc(O)cc42)[C@H]13.O=C(O)C(O)C(O)C(=O)O` [TR-5257, 17-Cyclobutylmethyl-3-hydroxy-8β-methylmorphinan-6-one Tartrate], for which, in data set [1] (rat, in vivo), the “loss in weight during substitution (in words)” value is “appeared to prevent the marked loss in weight observed in the morphine controls” and the substitution for morphine result is on record as “ambiguous, with indication of partial substitution”. Besides, the “Mean % Change in Weight From Termination” value in data set [1] (rat, in vivo, 125 mg/kg/day) is listed as -2.64%. Moreover, in data set [2] (setting [5]), the “Incidence of Aggressive” value is 1/8, the “Incidence of Diarrhea” value is reported as 4/8, the “Incidence of Pilo erection” value was 8/8 and the “Incidence of Wet dog shakes” value is 6/8. In data set [2] (+24 hr), the “Incidence of Pilo erection” value was 4/8 and the “Incidence of Tremors” value was 1/4. For the same compound, the “Incidence of Pilo erection” value in data set [2] (+30 hr) was 4/8. Also, the withdrawal symptoms entry in data set [2] (during period of drug substitution, 125 mg/kg/day) is recorded as “marked withdrawal symptoms”. Besides, in data set [3], the ED50 was 0.14 mg/kg.

As for `C=C1C[C@H](C)[C@H]2[C@H]3Cc4ccc(OC)cc4[C@@]2(CCN3CC2CCC2)C1.Cl` [TR-5377, 17-cyclobutylmethyl-3-methoxy-8β-methyl-6-methylene-morphinane Hydrochloride], the ED50 in data set [3] came to 6.42 mg/kg.

On to `C=C1C[C@H](C)[C@H]2[C@H]3Cc4ccc(O)cc4[C@@]2(CCN3CC2CCC2)C1` [TR-5379, 17-Cyclobutylmethyl-3-hydroxy-8β-methyl-6-methylene morphinane], for which the substitution for morphine result in data set [1] (rat, in vivo) was “did not substitute for morphine; also recorded: does not substitute for morphine”; with drug dependent monkeys it was “did not substitute for morphine”. Moreover, the “Mean % Change in Weight From Termination” value in data set [1] (rat, in vivo, 125 mg/kg/day) is -11.3%. In addition, in data set [2] (setting [5]), the “Incidence of Aggressive” value is on record as 1/6. In addition, the “Incidence of Diarrhea” value in data set [2] (setting [5]) is 4/6; in data set [2] (+24 hr) it was 2.6; in data set [2] (+30 hr), 2/6. Besides, the “Incidence of Pilo erection” value is listed as 6/6 in data set [2] (setting [5]), 6/6 in data set [2] (+24 hr) and 4/6 in data set [2] (+30 hr). Also, the morphine antagonist action entry in data set [4] (compared with corresponding 6-keto analog) is on record as “more potent morphine antagonist action than its corresponding 6-keto analog”. Besides, the dose-response curve entry in data set [4] (compared with corresponding 6-keto analog, test not named) was “steeper dose-response curve”. For the same compound, the ED50 in data set [3] is 0.18 mg/kg.

On to `C=C1C[C@H](C)[C@H]2[C@H]3Cc4ccc(OC)cc4[C@@]2(CCN3CC2CC2)C1` [TR-5412, 17-cyclopropylmethyl-3-methoxy-8β-methyl-6-methylene-morphinane], for which, in data set [3], the ED50 amounted to 3.2 mg/kg.

Consider `C=C1C[C@H](C)[C@H]2[C@H]3Cc4ccc(O)cc4[C@@]2(CCN3CC2CC2)C1` [TR-5413, 17-Cyclopropylmethyl-3-hydroxy-8β-methyl-6-methylene-morphinane], for which the ED50 in data set [3] was 1.7 mg/kg.

As for `C=C1CC[C@H]2[C@H]3Cc4ccc(O)cc4[C@@]2(CCN3CC2CCC2)C1` [TR-5566, 17-Cyclobutylmethyl-3-hydroxy-6-methylene-morphinane Hydrochloride Acetone Solvate], the ED50 in data set [3] stood at 0.09 mg/kg.

As for `C=C1CC[C@H]2[C@H]3Cc4ccc(O)cc4[C@@]2(CCN3CC2CC2)C1` [TR-5609, 17-Cyclopropylmethyl-3-hydroxy-6-methylene-morphinan], the ED50 in data set [3] is 0.38 mg/kg.

As for `C=C1CC[C@H]2[C@H]3Cc4ccc(OC)cc4[C@@]2(CCN3CC2CCC2)C1` [TR-5610, 17-Cyclobutylmethyl-3-methoxy-6-methylene-morphinane Tartrate Ethanol Solvate], the “AD50 (dose required to inhibit the effect of morphine by 50%)” value in data set [4] (rat, test drug intraperitoneal, ED80 dose of morphine s.c. 10 min later) was “IA @ 10”. The ED50 in data set [3] amounted to 1.6 mg/kg.

Values taken from patent US4259329A, “17-Cyclobutylmethyl-3-hydroxy-β-methyl-6-methylene morphinane, and methods of treating pain with them” (priority 1980, dated 1981).
